According to US6680177B2, “Low molecular weight heparin assay, system and reagent therefor” (Cardiovascular Diagnostics, Inc., priority 2001, dated 2004):
Where a SMILES comes first, the peptide text is derived from it. Bridges are numbered along the chain shown (N, C = ends). [ ]: non-standard residue; d: D form. hArg = N=C(N)NCCCC[C@H](N)C(=O)O; Mpa = O=C(O)CCS

System: citrated whole blood (CWB)
Assay: Interference testing for Rapidpoint ENOX test in citrated whole blood
Format: biochemical
Details: for EFFECT on ENOX test: CWB; for sensitivity of the ENOX test to the agent: in vitro, citrated whole blood

N=C(N)NCCCC[C@@H]1NC(=O)CCSSC[C@@H](C(N)=O)NC(=O)[C@@H]2CCCN2C(=O)[C@H](Cc2c[nH]c3ccccc23)NC(=O)[C@H](CC(=O)O)NC(=O)CNC1=O [Eptifibatide] ([Mpa][hArg]GDWPC-NH2; disulfide 1-7)
EFFECT on ENOX test (0-2600 ng/ml): No effect at 0-2600 ng/ml
sensitivity of the ENOX test to the agent: insensitive

O=C(c1ccccc1)c1ccc2n1CCC2C(=O)O (centres unmarked) [Ketorolac tromethamine]
EFFECT on ENOX test (0-12 ng/ml): No effect at 0-12 ng/ml

O=[N+]([O-])OCC(CO[N+](=O)[O-])O[N+](=O)[O-] [Nitroglycerin]
EFFECT on ENOX test (0-1000 ng/ml): No effect at 0-1000 ng/ml

CCCCS(=O)(=O)N[C@@H](Cc1ccc(OCCCCC2CCNCC2)cc1)C(=O)O [Tirofiban]
EFFECT on ENOX test (0-5600 ng/ml): No effect at 0-5600 ng/ml
sensitivity of the ENOX test to the agent: insensitive

CC(=O)Oc1ccccc1C(=O)O [Aspirin]
EFFECT on ENOX test (0-300 ug/ml): No effect at 0-300 ug/ml
sensitivity of the ENOX test to the agent: insensitive
